Measured values as given in patent US8399495B2, “Talarazole metabolites” (Stiefel Laboratories, Inc., priority 2006, dated 2013).

Experiments:
[1] = Excretion of radioactivity (mass balance), dog; assay type: in vivo; conditions: male, 0-192 h, oral 5 mg/kg, listed as 14C-labeled talarozole, 5 mg/kg
Description: (§1) Mouse, rat, dog and human were the species used for the safety evaluations of talarozole. More specifically, the disposition of ^14C-labeled talarozole was examined in mice, rats, dogs and humans after oral administration to provide information regarding the absorption, metabolism and excretion of talarozole.
(§2) Male and female CD-1 mice (19-29 g, n=3/sex/timepoint for blood sampling, n=3/sex for mass balance), Sprague Dawley rats (0.205-0.237 kg, n=3/sex/timepoint for blood sampling, n=3/sex for mass balance) and beagle dogs (7-12 kg, n=3) were given a single oral dose of ^14C-labeled talarozole in 20% hydroxyl propyl B-cyclodextrin at 5 mg/kg. Healthy human male volunteers (76.6-107.9 kg, n=5) were dosed with a single oral dose of 4 mg ^14C-labeled rambazole in ethanol. Blood samples were collected at selected timepoints after dosing and plasma was prepared. Urine and feces were collected for 2, 7 and 8 days. For the human study, up to 288 hours post-dose and semen samples were obtained 2 and 4 hours post-dose. Radioactivity in various matrices were measured by liquid scintillation counting (LSC). Select plasma, urine and fecal samples were subjected to metabolite radioprofiling and characterization, and in the human study, semen samples. Metabolite radioprofiling was accomplished using HPLC with fraction collection followed by solid scintillation counting (Packard TopCount—see representative HPLC run data below). Radioactivity peaks were integrated and the percent distribution of individual metabolites in each sample was determined. Metabolite characterization and identification were accomplished by LC/MS (Finnigan MAT LCQ in positive or negative ESI mode) in conjunction with an appropriate radioactive monitor (RAM). For all species, plasma, urine and fecal samples were pooled across animals and analyzed. Plasma was analyzed at several time-points out to 24 hours. Urine was analyzed over one time-interval (0-24 hours for mouse, 0-48 hours for rat, 0-72 hours for dog, and for in the human study, 0-12, 12-24, 24-48, 0-48 hours. Feces was analyzed over 2-3 time intervals (0-24 and 24-48 hours for mouse and rat; 0-24, 24-48, and 48-72 hours for male dogs; and 24-48, 48-72, and 72-96 hours for female dogs). In the human study, feces were analyzed for 0-48, 48-96, 96-144, 144-192, 192-288, 0-144, 144-288 and 0-288 hours. PK parameters for ^14C-labeled talarozole radioactivity was determined from the mean (mouse and rat) or individual (dog and human) plasma concentration versus time data. PK parameter values were determined by non-compartmental methods using WinNonlin™. • HPLC data for separations described in Example 1: • LC system: Waters 2695 Separations Module • Analytic column: C18 column, 4.6×150 mm, 3 μm • Flow rate: 1.0 mL/min • Mobile phase A: 2% HCOOH in H2O (pH 3.2) • Mobile phase B: CH3CN • Gradient: […]

[2] = Excretion of radioactivity (mass balance), human; assay type: in vivo; conditions: male, 0-288, oral 4 mg
Description: as §1, §2

[3] = Metabolite radioprofiling of plasma, urine and feces, mouse; assay type: in vivo; conditions: for Feces % Dose as the component / Plasma 0-24 h AUC (% Sample) / Plasma 0-24 h AUC of the radioactive component / Urine % Dose as the component: mouse (5 mg/kg) oral 14C-talarozole; for Urine % Dose as the component: urine 0-24 h; for Plasma 0-24 h AUC, total radioactivity: mouse (5 mg/kg)
Description: as §2

[4] = Metabolite radioprofiling of plasma, urine and feces, rat; assay type: in vivo; conditions: for Feces % Dose as the component / Plasma 0-24 h AUC (% Sample) / Plasma 0-24 h AUC of the radioactive component / Urine % Dose as the component: rat (5 mg/kg) oral 14C-talarozole; for Urine % Dose as the component: urine 0-48 h; for Plasma 0-24 h AUC, total radioactivity: rat (5 mg/kg)
Description: as §2

[5] = Metabolite radioprofiling of plasma, urine and feces, dog; assay type: in vivo; conditions: for Feces % Dose as the component / Plasma 0-24 h AUC (% Sample) / Plasma 0-24 h AUC of the radioactive component: dog (5 mg/kg) oral 14C-talarozole; for Plasma 0-24 h AUC, total radioactivity: dog (5 mg/kg)
Description: as §2

[6] = Metabolite radioprofiling of plasma, urine, feces and semen, human; conditions: in vivo
Description: as §2

[7] = listed as 14C-labeled talarozole

% in Feces (percent of dose recovered, total radioactivity) [1]: 88.7% | Total % Recovered [2]: 87.7% | % in Feces (percent of dose recovered, total radioactivity) ([2]; listed as 14C-Talarozole): 80.36% | % in Urine (percent of dose recovered, total radioactivity) ([2]; listed as 14C-Talarozole): 7.29% | % in Feces (percent of dose recovered, total radioactivity) [2, 7]: 72.2% | % in Urine (percent of dose recovered, total radioactivity) [2, 7]: 7.3% | Feces % Dose as the component ([3]; female): 7.04 % Dose | Plasma 0-24 h AUC (% Sample) ([3]; female): 21.48% | Plasma 0-24 h AUC of the radioactive component ([3]; female): 1420.2 ng·h/g | Feces % Dose as the component ([3]; male): 6.11 % Dose | Plasma 0-24 h AUC (% Sample) ([3]; male): 15.15% | Plasma 0-24 h AUC of the radioactive component ([3]; male): 1377.5 ng·h/g | Plasma 0-24 h AUC, total radioactivity ([3]; female): 66113.0 ng*hr/g F | Plasma 0-24 h AUC, total radioactivity ([3]; male): 9092.5 ng·h/g/M | Feces % Dose as the component ([4]; female): 4.60 % Dose | Plasma 0-24 h AUC (% Sample) ([4]; female): 39.17% | Plasma 0-24 h AUC of the radioactive component ([4]; female): 3523.2 ng·h/g | Urine % Dose as the component ([4]; female): 1.90 % Dose | Feces % Dose as the component ([4]; male): 5.34 % Dose | Plasma 0-24 h AUC (% Sample) ([4]; male): 11.05% | Plasma 0-24 h AUC of the radioactive component ([4]; male): 778.38 ng·h/g | Urine % Dose as the component ([4]; male): 0.10 % Dose | Plasma 0-24 h AUC, total radioactivity ([4]; female): 8995.6 ng*hr/g F | Plasma 0-24 h AUC, total radioactivity ([4]; male): 7045.6 ng·h/g/M | Feces % Dose as the component ([5]; female): 1.59 % Dose | Plasma 0-24 h AUC (% Sample) ([5]; female): 23.20% | Plasma 0-24 h AUC of the radioactive component ([5]; female): 4228.0 ng·h/g | Feces % Dose as the component ([5]; male): 1.22 % Dose | Plasma 0-24 h AUC (% Sample) ([5]; male): 24.24% | Plasma 0-24 h AUC of the radioactive component ([5]; male): 4132.9 ng·h/g | Plasma 0-24 h AUC, total radioactivity ([5]; female): 18225 ng*hr/g F | Plasma 0-24 h AUC, total radioactivity ([5]; male): 17047 ng·h/g/M | Plasma 0-24 h AUC of the radioactive component ([6]; human, po, 0.067 mg/kg): 12.74 ng·h/g | Semen (radioactive component in semen samples) [6]: minor radioactive components | Urine % Dose as the component [6]: not found | Plasma 0-24 h AUC, total radioactivity ([6]; male, human, 0.067 mg/kg): 211.3 ng·h/g | Plasma 0-24 h AUC (% Sample), % of total plasma radioactivity ([6]; male, human, po, 0.067 mg/kg): 6.03%
SMILES: CCC(CC)[C@H](c1ccc(Nc2nc3ccccc3s2)cc1)n1cncn1 [Talarozole, (R)—N-[4-[2-ethyl-1-(1H-1,2,4-triazole-1-yl)butyl]phenyl]-2-benzothiazolamine]
Urine % Dose as the component ([3]; female): No unchanged ^14C-labeled talarozole was detected | Urine % Dose as the component ([3]; male): No unchanged ^14C-labeled talarozole was detected
